Assay results from paper PMC6218115, “In Vitro Potency and Preclinical Pharmacokinetic Comparison of All-D-Enantiomeric Peptides Developed for the Treatment of Alzheimer’s Disease” (Journal of Alzheimer's Disease, 2018).
Read-outs that look alike come from different tables or passages of the source. Non-standard residues stand in square brackets, D forms with d. Residues, ends and D or L forms follow the SMILES beside them.

Legend:
[1] = biological target: T1, Aβ1-42 (Homo sapiens, UniProt P05067); test: Aβ aggregation assay (Thioflavin T); format: biochemical; details: for molar excess with regard to Aβ for complete inhibition of Aβ1-42 fibril formation: 10 μM Aβ1-42, ThT; for reduction of the aggregation amplitude: equimolar concentration of peptide relative to Aβ1-42 (10 μM)
T1 construct: Lyophilized Aβ1 - 42 was dissolved in the respective peptide solution; purchased Isoloid GmbH (recombinant) or Bachem AG (synthetic)
T1 sequence (P05067 672-713 limits assumed): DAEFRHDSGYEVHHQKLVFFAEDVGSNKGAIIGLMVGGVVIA
Experimental: The potencies of ANK6, tANK6, cANK6r, and D3 to inhibit Aβ1 - 42 aggregation was examined using Thioflavin T (ThT). For this purpose, a buffer solution composed of 20 mM sodium phosphate buffer (pH 7.4) including 50 mM sodium chloride, and 5μM ThT was prepared. Afterwards, ANK6, tANK6, cANK6r, or D3 were diluted in this solution, respectively, to final peptide concentrations between 0.3125 and 80μM (ANK6 and tANK6:0.3125, 0.625, 1.25, 2.5, 5, 10, 20μM; cANK6r: 1.25, 2.5, 5, 10, 20, 40, 80μM; D3:1.17, 2.34, 4.7, 9.4, 18.8, 37.5, 75μM).
The buffer solution only served as negative control (blank). Lyophilized Aβ1 - 42 was dissolved in the respective peptide solution to a final concentration of 10μM. D-peptide solutions with the highest concentration of the respective D-peptide containing all components, except of Aβ1 - 42, served as negative controls. Aβ1 - 42 solved in buffer solution without D-peptide served as positive control. 100μL of each solution were transferred into the wells (triplicates) of 96 well microplates (PS, black, non-binding from Greiner Bio-One, Germany) and fluorescence signals (excitationλ 440 nm, emissionλ 490 nm) were measured in a Polarstar Optima plate reader (BMG, Germany) at 37°C every 20 min for 70 h. Afterwards, the respective blank curves were subtracted from each aggregation curve to exclude background fluorescence. […] The half maximal inhibitory concentration (IC50 value) was determined by plotting the percent inhibition against the respective D-peptides’ concentrations. Datasets were fitted by nonlinear regression (one site – specific binding with Hill slope, GraphPad Prism 5).

[2] = biological target: T2, Aβ1-42 oligomers (Homo sapiens, UniProt P05067); test: Quantitative determination of interference with Aβ aggregate size distribution (QIAD); format: biochemical; details: for Aβ concentrations in fractions 1 and 2 (Aβ monomers): 80 μM Aβ1-42, 20 μM peptide; for Aβ oligomer concentrations in fractions 4 to 6 versus Aβ1-42 alone: 80 μM Aβ1-42 pre-incubated 2.5 h, 20 μM peptide, 40 min, density gradient centrifugation, RP-HPLC UV 214 nm, p≤0.001
T2 construct: Lyophilized Aβ1 - 42 was dissolved in the respective peptide solution; purchased Isoloid GmbH (recombinant) or Bachem AG (synthetic)
T2 sequence (P05067 672-713 limits assumed): as above
Experimental: As soluble Aβ oligomers are currently expected to be the most neurotoxic Aβ species causing AD, the Aβ1 - 42 oligomer elimination potency of ANK6, tANK6, and cANK6r was investigated by the quantitative determination of interference with Aβ aggregate size distribution (QIAD) similar as described before. In short, lyophilized Aβ1 - 42 was dissolved in sodium phosphate buffer to a final concentration of 80μM and incubated for 2.5 h (21°C, 600 rpm) to achieve an Aβ aggregate distribution including monomers, oligomers, and higher molecular aggregates. Then, sodium phosphate buffer (control), 20μM ANK6, 20μM tANK6, or 20μM cANK6r were added and incubated for further 40 min (21°C, 600 rpm). Afterwards, the samples were loaded on top of a density gradient (5 to 50% (w/v) iodixanol, OptiPrep, Axis-Shield, Norway) and ultra-centrifuged for 3 h (4°C, 259.000× g, Optima TL-100, Beckman Coulter, USA). In the following, 14 fractions (140μL each) were taken from top to bottom, whereby the top fractions (1-2) contained Aβ monomers, the middle fractions (4–6) contained the Aβ oligomers of special interest, and the bottom fractions (11–14) contained high molecular weight co-precipitates. The left-over was diluted in 60μL 6 M guanidine hydrochloride (fraction 15). Finally, the Aβ1 - 42 concentrations in all fractions were determined via analytical RP-HPLC (reversed phase-high performance liquid chromatography) and UV absorbance detection at 214 nm.

[3] = Plasma protein binding, TRANSIL XL AGP binding kit; format: in vitro ADME, human; details: TRANSIL XL AGP beads 0.04-3 μM, 5 μM peptide (3H-labelled + non-labelled), LSC read-out, nonlinear regression
Experimental: (§1) Plasma protein binding (PPB) to human serum albumin (HSA) and α1-acid glycoprotein (AGP) of ANK6, tANK6, and cANK6r was analyzed according to the manufacturer’s protocol of TRANSIL^XL HSA and AGP binding kits (Sovicell GmbH, Germany). To cover a larger range of HSA and AGP concentrations, the bead concentrations in the kit were modified. For detection, a mixture of ^3H-labelled and non-labelled ANK6, tANK6, and cANK6r (final concentrations of 5μM) was added to different concentrations of HSA (7.4μM to 420μM, 10–12 different concentrations) or AGP beads (0.04μM to 3μM, 9–12 different concentrations). The amount of unbound ANK6, tANK6, and cANK6r (in %) to HSA or AGP, respectively, was determined by liquid scintillation counter (LSC) measurements. The dissociation constants (KD) as well as the free drug fractions (fu) in human plasma were calculated as described before. Calculations were based on peptide concentrations detected in the blood 4 h after single oral administration of 10 mg/kg: 0.01μM ANK6, 0.01μM tANK6, and 0.01μM cANK6r.

[4] = Free drug fraction (fu) in human plasma predicted from HSA and AGP affinities; format: in vitro ADME; details: predicted from affinities to HSA and AGP, at 0.01 μM peptide (blood level 4 h after oral administration)
Experimental: as §1

[5] = Blood-brain barrier values (logBB, Kin, Vi, PS); format: in vivo, C57Bl/6N mice; details: mice; for logBB, blood-brain equilibrium distribution: after i.v. administration 3.3 mg/kg, log(AUClast,br/AUClast,pl); for PS, permeability surface-area product / Vin / Kin, unidirectional influx rate constant: after i.v. administration; for PS, permeability surface-area product: CBF 1.07 mL/(g*min); for Vin: graphical determination (initial distribution volume in brain); for Kin, unidirectional influx rate constant: graphical determination, linear range 0-240 min (ANK6, cANK6r), 0-1440 min (tANK6)
Experimental: To allow for direct comparison with other peptides, four universally applied BBB parameters were determined: the blood-brain equilibrium distribution (logBB), the […] influx rate constant (Kin), the initial distribution volume in brain (Vi), and the permeability surface-area product (PS). Based on data of the concentration-time profiles and pharmacokinetic parameters after i.v. administration, the BBB parameters were calculated with the help of the formulas listed in Table 2. Graphical determination of Kin and Vi was conducted by plotting the brain concentration to plasma concentration ratio at certain time points (Cb (t)/Cp (t) [mL/g]) on the y-axis against the exposure time (AUCp (t)/Cp (t) [min]) on the x-axis. The linear range for Kin and Vi determination was between 0 and 240 min for ANK6 and cANK6r (R^2: 0.9970, 0.9996) and between 0 and 1440 min for tANK6 (R^2: 0.9758). PS was calculated on the basis of a murine cerebral blood flow (CBF) of 1.07 mL/(g*min).

[6] = 10 μM Aβ1-42, 5 μM ThT, 20 mM sodium phosphate pH 7.4, 50 mM NaCl, 37°C, 70 h, triplicates, nonlinear regression, read-out: IC50, inhibition of Aβ1-42 aggregation into ThT-positive fibrils

| IC50 [1, 6] | molar excess with regard to Aβ for complete inhibition of Aβ1-42 fibril formation [1] | Aβ oligomer concentrations in fractions 4 to 6 versus Aβ1-42 alone [2] | Kd [3] | overall fu in plasma (fraction unbound) [4] | logBB, blood-brain equilibrium distribution [5] | PS, permeability surface-area product [5] | Vin [5] | Kin, unidirectional influx rate constant [5] | Compound | reduction of the aggregation amplitude [1] | Aβ concentrations in fractions 1 and 2 (Aβ monomers) [2] | IC50 [1] |
| --- | --- | --- | --- | --- | --- | --- | --- | --- | --- | --- | --- | --- |
| 2100 nM | two-fold molar excess | significantly lowered | 60 nM | 0.29% | 0.335 | 0.0016 mL/g/min | 0.5833 mL/g | 0.0016 mL/g/min | CC[C@@H](C)[C@@H](NC(=O)[C@@H](CCCNC(=N)N)NC(=O)[C@@H](CCCCN)NC(=O)[C@H](N)CCCNC(=N)N)C(=O)N[C@H](CCCNC(=N)N)C(=O)N[C@H](CC(C)C)C(=O)N[C@@H](C(=O)N[C@@H](C(=O)N[C@H](CCCCN)C(=O)N[C@H](CCCCN)C(=O)N[C@H](CCCCN)C(=O)N[C@H](CCCNC(=N)N)C(=O)N[C@H](CCCNC(=N)N)C(=O)N[C@H](CCCCN)C(=O)N[C@H](CCCNC(=N)N)C(=O)N[C@@H](C(=O)N[C@H](CCCNC(=N)N)C(=O)N[C@H](CC(C)C)C(=O)N[C@@H](C(=O)N[C@@H](C(=O)N[C@H](CCCCN)C(=O)N[C@H](CCCCN)C(=O)N[C@H](CCCCN)C(=O)N[C@H](CCCNC(=N)N)C(N)=O)[C@H](C)O)C(C)C)[C@H](C)CC)[C@H](C)O)C(C)C [tANK6] (H-[dR][dK][dR][dI][dR][dL][dV][dT][dK][dK][dK][dR][dR][dK][dR][dI][dR][dL][dV][dT][dK][dK][dK][dR]-NH2; N-terminus assumed) | more than 97% | reduced the Aβ monomer concentrations much stronger | – |
| 3700 nM | about eight-fold molar excess | significantly lowered | 280 nM | 1.36% | –0.329 | 0.0003 mL/g/min | 0.0396 mL/g | 0.0003 mL/g/min | CC[C@@H](C)[C@H]1NC(=O)[C@@H](CCCNC(=N)N)NC(=O)[C@@H](CCCCN)NC(=O)[C@@H](CCCNC(=N)N)NC(=O)[C@@H](CCCNC(=N)N)NC(=O)[C@@H](CCCNC(=N)N)NC(=O)[C@@H](CCCCN)NC(=O)[C@@H](CCCCN)NC(=O)[C@@H](CCCCN)NC(=O)[C@@H]([C@H](C)O)NC(=O)[C@@H](C(C)C)NC(=O)[C@@H](CC(C)C)NC(=O)[C@@H](CCCNC(=N)N)NC1=O [cANK6r] (cyclo([dR][dK][dR][dI][dR][dL][dV][dT][dK][dK][dK][dR][dR])) | – | only slightly lowered | – |

| Compound | IC50 [1, 6] | molar excess with regard to Aβ for complete inhibition of Aβ1-42 fibril formation [1] | Aβ oligomer concentrations in fractions 4 to 6 versus Aβ1-42 alone [2] | Kd [3] | overall fu in plasma (fraction unbound) [4] | logBB, blood-brain equilibrium distribution [5] | PS, permeability surface-area product [5] | Vin [5] | Kin, unidirectional influx rate constant [5] | reduction of the aggregation amplitude [1] | Aβ concentrations in fractions 1 and 2 (Aβ monomers) [2] | IC50 [1] |
| --- | --- | --- | --- | --- | --- | --- | --- | --- | --- | --- | --- | --- |
| CC[C@@H](C)[C@@H](NC(=O)[C@@H](CCCNC(=N)N)NC(=O)[C@@H](CCCCN)NC(=O)[C@H](N)CCCNC(=N)N)C(=O)N[C@H](CCCNC(=N)N)C(=O)N[C@H](CC(C)C)C(=O)N[C@@H](C(=O)N[C@@H](C(=O)N[C@H](CCCCN)C(=O)N[C@H](CCCCN)C(=O)N[C@H](CCCCN)C(=O)N[C@H](CCCNC(=N)N)C(N)=O)[C@H](C)O)C(C)C [ANK6] (H-[dR][dK][dR][dI][dR][dL][dV][dT][dK][dK][dK][dR]-NH2; N-terminus assumed) | – | two-fold molar excess | significantly lowered | 290 nM | 1.43% | –0.401 | 0.0003 mL/g/min | 0.0575 mL/g | 0.0003 mL/g/min | more than 97% | reduced the Aβ monomer concentrations much stronger | 3600 nM |
